Consider one compound from publication PMC9305971, “Development of [^18F]AmBF3 Tetrazine for Radiolabeling of Peptides: Preclinical Evaluation and PET Imaging of [^18F]AmBF3-PEG7-Tyr^3-Octreotide in an AR42J Pancreatic Carcinoma Model” (Bioconjugate Chemistry, 2022).

The data set in a line: Distribution of radioactivity in blood components after i.v. administration. The format is in vivo, mice. The method, then:
Whole blood from mice were extracted during ex vivo studies, using cardiac puncture. The sample was applied in a microtube containing 1% heparin solution in 0.9% NaCl (aq.) (2 μL); the sample was centrifuged (1000g, 10 min), the total radioactivity in the sample was measured with a γ counter, the supernatant was separated from the pellet (RBC containing fraction), and cold ACN (500 μL) was added. The sample was centrifuged (10,000g, 5 min) to remove the free fraction from the precipitated protein-containing pellet. The pellet (protein-bound fraction) and the supernatant (free fraction) were measured with a γ counter, and a sample (100 μL) was injected into HPLC and spotted (4 μL) on a TLC plate (radio-TLC, TLC silica gel 60 F254, ACN/water 80:20).

Where [1] appears, read: 60 min post injection, blocked with octreotide.

Where two headings read alike, the source gives them in different places.

As for `C[C@@H](O)[C@@H]1NC(=O)[C@H](CCCCN)NC(=O)[C@@H](Cc2c[nH]c3ccccc23)NC(=O)[C@H](Cc2ccc(O)cc2)NC(=O)[C@@H](NC(=O)[C@@H](Cc2ccccc2)NC(=O)CCOCCOCCOCCOCCON=Cc2ccc(CNC(=O)OC3CCCc4cnnc(-c5ccc(CC(=O)NCC[N+](C)(C)C[B-](F)(F)F)cc5)c4CC3)cc2)CSSC[C@@H](C(=O)N[C@H](CO)[C@@H](C)O)NC1=O` (stereo partly drawn) [[^18F]14], the protein bound fraction was determined as 5.5% (5 min post injection), 7.00% (60 min post injection) and 14.6% under setting [1]. Further, the “radioactivity bound to red blood cells” value was 22% (5 min post injection); 21.6% (5 min post injection, listed as [18F]14); 25% (60 min post injection); 29.7 ± 2.9% under setting [1]; 29.7% (60 min post injection, blocked with octreotide, listed as [18F]14); 24.5% (60 min post injection, listed as [18F]14). Further, for the setting “mouse, whole blood, intravenous, 5 min post injection, read-out: free fraction”, the fraction unbound at 5 min is 0.729 ± 0.051. The fraction unbound at 60 min is 0.557 ± 0.114 (mouse, whole blood, intravenous, 60 min post injection, blocked with octreotide, read-out: free fraction) and 0.685 ± 0.053 (mouse, whole blood, intravenous, 60 min post injection, read-out: free fraction).
